# Data taken from PubChem BioAssay AID463199 (Broad Institute, 2010).
# Activity calls are given as the source filed them.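 The calls were made as follows: active = AC50, the dose giving half-maximal effect, exceeds a fixed cutoff for a compound that rescues yeast growth under heat; inactive = the rest, inconclusive results apart.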
# System: S. cerevisiae Burl-1 ts mutant growth, BacTiter-Glo, 38.5C 24 h
# Assay: growth induction of Burl-1 ts yeast mutant, dose response, counter-screen for SUMOylation pathway inhibitor project, whole organism, S. cerevisiae, luminescence (AID 463199)
row,SMILES,AC50
1,COc1ccc(S(=O)(=O)N2CCN(c3ccc(F)cc3)CC2)cc1C(=O)N1CCOCC1,> 42 µM (inactive)
2,O=C(OC1CCOC1=O)c1cccc(S(=O)(=O)Nc2ccc(F)cc2)c1 (centres undefined),> 42 µM (inactive)
3,O=C(C1CCN(C2CC(=O)N(c3cccc(Cl)c3)C2=O)CC1)N1CCCC1 (centres undefined),> 42 µM (inactive)
4,O=C1CCc2cc(S(=O)(=O)N3CCC(C(=O)NC4CCCC4)CC3)ccc2N1,> 42 µM (inactive)
5,O=C1N=C(N2CCN(c3ccccc3)CC2)SC1Cc1ccccc1 (centres undefined),> 42 µM (inactive)
6,O=C(NCC1CCCO1)C1CC(c2ccc(Cl)c(Cl)c2)=NO1 (centres undefined),> 42 µM (inactive)
7,Cc1ccc(C(=O)NC(Cc2c[nH]c3ccccc23)C(=O)O)o1 (centres undefined),> 42 µM (inactive)
8,O=C(NCCCN1CCN(c2ccccc2F)CC1)Nc1ccccc1[N+](=O)[O-],25.4 µM
9,O=C(Cn1nc(C(F)(F)F)c2c1CCCC2)N1CCOCC1,> 42 µM (inactive)
10,CC(=O)Nc1ccc(C(=O)NCCCOC(C)C)cc1,> 42 µM (inactive)
11,O=C(C1CCN(S(=O)(=O)N2CCC3(CC2)OCCO3)CC1)N1CCC(Cc2ccccc2)CC1,> 42 µM (inactive)
12,CS(=O)(=O)N(CC(=O)NCCSCc1ccccc1)c1ccc2c(c1)OCO2,> 42 µM (inactive)
13,COc1ccc(Cn2nnnc2CN2CCN(c3ccc(OC)cc3)CC2)cc1,> 42 µM (inactive)
14,CC(C)CC(c1nnnn1C1CCCCC1)N1CCN(C(=O)c2ccco2)CC1 (centres undefined),> 42 µM (inactive)
15,CC(C)(C)NC(=O)C(c1cccs1)N(Cc1cccs1)C(=O)c1ccc(CN2CCOCC2)o1 (centres undefined),> 42 µM (inactive)
16,Cc1cccc(OCCC(=O)Nc2ccc(F)c(F)c2)c1,> 42 µM (inactive)
17,CN(C=O)CP(=O)(O)CN(C)C=O,> 42 µM (inactive)
18,COc1ccccc1CCNC(=O)/C(=C/c1cccnc1)NC(=O)c1ccccc1,> 42 µM (inactive)
19,COCCn1c(N)c(N(Cc2ccccc2)C(=O)CN2C(=O)NC(C)(c3ccccc3)C2=O)c(=O)[nH]c1=O (centres undefined),39.8 µM
20,CC1CN(C(=O)c2cc([N+](=O)[O-])cc([N+](=O)[O-])c2)CC(C)O1 (centres undefined),> 42 µM (inactive)
21,CN1C(=O)c2cccc3c(Cl)ccc(c23)C1=O,> 42 µM (inactive)
22,O=S1(=O)C=C(Sc2nnc(-c3ccccc3)o2)c2ccccc21,8.23 µM
23,CN(C)CC/C=C1/c2cc(F)ccc2Sc2ccc(Cl)cc21,> 42 µM (inactive)
24,CCCC(O)(c1ccc(Br)cc1)C(CN1CCOCC1)c1ccc(Cl)cc1 (centres undefined),> 42 µM (inactive)
25,Cc1ccc(NC(=O)Cn2sc3nc(C)cc(C)c3c2=O)c(Cl)c1,> 42 µM (inactive)

row,SMILES,AC50
1,Cc1cc(-c2ccc(C(C)C)c(S(=O)(=O)N3CC(=O)Nc4ccccc43)c2)on1,> 42 µM (inactive)
2,COC(=O)c1cn(C(=O)c2cccc3ccccc23)c2ccccc12,> 42 µM (inactive)
3,COc1ccc(/C=N/NC(=O)CCC(=O)Nc2ccccc2)cc1OC,> 42 µM (inactive)
4,CCN(CC)C(=O)C1CCCN(c2ccc([N+](=O)[O-])cc2/C=N/NC(=O)c2cccc(Br)c2)C1 (centres undefined),> 42 µM (inactive)
5,Cc1cccc(C)c1NS(=O)(=O)c1ccc(OCCNS(C)(=O)=O)cc1,> 42 µM (inactive)
6,COc1ccc(N2CC(C(=O)N3CCc4ccccc43)CC2=O)cc1 (centres undefined),> 42 µM (inactive)
7,Fc1ccc2nc(C3CCN(Cc4nc(CC5CC5)no4)CC3)[nH]c2c1,> 42 µM (inactive)
8,COC(=O)c1cc2occc2n1Cc1nc(-c2ccccc2C)oc1C,> 42 µM (inactive)
9,Cc1ccc(S(=O)(=O)CCC(=O)OCC(=O)N(C)C2CCS(=O)(=O)C2)cc1 (centres undefined),> 42 µM (inactive)
10,COC(=O)c1cc(N=Nc2c(C)[nH]c3ccccc23)cc(C(=O)OC)c1,> 42 µM (inactive)
11,Cc1nn(CC(=O)Nc2ccccn2)c(C)c1[N+](=O)[O-],> 42 µM (inactive)
12,Cc1ccc(-n2c(C)cc(/C=N/NC(=O)c3ccncc3)c2C)cc1C,> 42 µM (inactive)
13,O=S(=O)(c1ccc(C2CCCCC2)cc1)N1CCCC1,> 42 µM (inactive)
14,O=C(NCCc1c[nH]c2ccccc12)c1cc(S(=O)(=O)N2CCCCC2)ccc1N1CCOCC1,> 42 µM (inactive)
15,NC1=NC(=Nc2ccc(S(N)(=O)=O)cc2)c2ccccc21,> 21 µM (inactive)
16,CCN=C1S/C(=C/c2ccc(-c3ccc(F)cc3)o2)C(=O)N1CC,> 42 µM (inactive)
17,O=C(Nc1cccc(O)c1)C(Cc1ccccc1)N1C(=O)c2cccc3cccc(c23)C1=O (centres undefined),> 42 µM (inactive)
18,COc1ccccc1NC(NC(=O)c1ccco1)C(=O)c1ccccc1 (centres undefined),> 42 µM (inactive)
19,COc1cc(C(=O)Nc2sc3c(c2C(=O)O)CCC(C)C3)cc(OC)c1OC (centres undefined),> 42 µM (inactive)
20,Cc1nc(CC(=O)N/N=C/c2ccc(OCC(=O)O)cc2)cs1,> 42 µM (inactive)
21,COc1ccc(-c2nnc(-c3cc4c(ccc5ccccc54)oc3=O)o2)cc1,> 42 µM (inactive)
22,Cc1cc(C)c2nc(-c3cccnc3)cc(C(=O)Nc3ccc(S(=O)(=O)Nc4onc(C)c4C)cc3)c2c1,> 42 µM (inactive)
23,CCCn1nc(C(=O)NNC(=O)c2cc(S(=O)(=O)NC)ccc2Br)c2ccccc2c1=O,> 42 µM (inactive)
24,CC[n+]1c(/C=C/N(C)c2ccccc2)n(-c2ccccc2)c2ccc(-c3nc4ccccc4s3)cc21,> 42 µM (inactive)
